Data on 23 molecules can be found in PubChem BioAssay (NCI).

The structures appear in SMILES notation.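 96-well plates; 48 h exposure; 5 concentrations. Endpoints by linear interpolation between flanking doses. Not reached: highest tested concentration assigned. The concentration for 50% growth inhibition is given as GI50. At the TGI there is no net growth.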

Common to all, as to assay: NCI-60 cell line screen, 48 h
Assay [1] concerns CAKI-1 renal.
The test system of assay [2] is U251 CNS.
Assay [3] relates to LOX IMVI melanoma.
Assay [4] relates to CCRF-CEM leukemia.
The test system of assay [5] is SNB-19 CNS.
The test system of assay [6] is SK-MEL-2 melanoma.
Assay [7] concerns OVCAR-5 ovarian.
Assay [8] concerns HL-60(TB) leukemia.
Assay [9] deals with MALME-3M melanoma.
Assay [10] deals with SNB-75 CNS.

Take `CC(=O)OC1C2(CC3N4C(=O)C5(CO)SSC4(CC31O)C(=O)N5C)OC(C)C(C)(C)C2=O` (centres undefined): the GI50 was 1.88 µM in assay [1]; below 0.01 µM in assay [2]; below 0.01 µM in assay [3]; 0.0184 µM in assay [5]; 0.339 µM in [6]; 0.0578 µM in assay [7]. The GI50 in [8] was 0.0379 µM; in assay [9], 0.154 µM. For the same molecule, the TGI was 3.86 µM in assay [1]; below 0.0121 µM in assay [3]; 0.175 µM in assay [4]; 0.0666 µM in assay [5]; 1.79 µM in assay [6]; 0.208 µM in assay [7].

`Nc1nc(OCc2ccccc2)nc2[nH]ncc12`: the GI50 was 11.1 µM in assay [1]; 18.9 µM in assay [2]; 15 µM in [3]; 26.3 µM in assay [5]; 20.3 µM in assay [6]; 11.9 µM in [7]. Also, the TGI in assay [1] is 33.2 µM; in assay [2], 42.2 µM; in assay [3], 36.2 µM; in [5], 83.2 µM; in assay [6] it was 47.9 µM; in assay [7], 28.2 µM.

On to `CCOc1ccc(NC(=O)CC2SC(N)=NC2=O)cc1` (centres undefined), for which the TGI in assay [2], in assay [3], in assay [10], in [4], in assay [5] and in assay [6] was above 100 µM throughout. The TGI in assay [7], in assay [8] and in assay [9] was above 100 µM throughout.

As to `CCCCC[C@H]1C/C=C2/C(=O)C(Cl)=C[C@@H]2C/C=C\CCCC(=O)O[C@@H](CCCCC)C/C=C2/C(=O)C(Cl)=C[C@@H]2C/C=C\CCCC(=O)O1`, the GI50 was 0.291 µM in assay [2]; 0.201 µM in assay [3]; 0.544 µM in [10]; 0.145 µM in assay [4]; 0.549 µM in [5]; 0.362 µM in [6]. Further, the results for the GI50 in assay [7], in [8] and in assay [9] were 0.689 µM, 0.429 µM and 0.504 µM, respectively. The TGI in assay [2] was determined as 0.652 µM; in assay [3], 0.437 µM; in [10] it was 3.89 µM; in assay [4] it was 1.76 µM; in assay [5] it was 2.24 µM; in [6] it was 0.918 µM. In addition, the TGI was 2.94 µM in assay [7], 1.27 µM in [8] and 1.85 µM in assay [9].

On to `COC(=O)[C@]1(C)CCC[C@@]2(C)C1CCC1=C[C@@]3(C(C)C)CC[C@]12OO3` (some centres undefined), for which the TGI in assay [2] was above 100 µM; in assay [3], 60.1 µM; in assay [4] it was 45.1 µM; in [5], above 100 µM; in assay [6], above 100 µM; in [7], 84.9 µM. The TGI in assay [8] was 42 µM; in [9] it was above 100 µM.

As to `CCOC(=O)/C(C#N)=C1\N[C@H](C(=O)OCC)CO1`, the TGI in assay [1] was above 100 µM; in assay [2], above 100 µM; in [3], above 100 µM; in [4] it was above 100 µM; in [5], above 100 µM; in assay [6], 62.6 µM. Moreover, the TGI in [7], in assay [8] and in assay [9] was above 100 µM throughout.

For the molecule `CC(=O)NC(CCCN(Cc1ccccc1)C(=O)N(CCCl)N=O)C(=O)NCc1ccccc1` (centres undefined), the TGI in assay [2] is above 100 µM; in assay [3], above 57.1 µM; in assay [10] it was 63.9 µM; in assay [4] it was above 100 µM; in assay [5], above 100 µM; in [6], above 94.8 µM. Further, the TGI in assay [7] is above 100 µM; in assay [8] it was 57.1 µM; in assay [9] it was above 75.6 µM.

`Cc1cc(N2CCCC2)nc(N(CCCNc2ccnc3cc(Cl)ccc23)Cc2ccc3c(c2)OCO3)n1`: the GI50 in assay [2] is 1.57 µM; in [3] it was 1.03 µM; in assay [10], 1.54 µM; in [4], 0.398 µM; in assay [5], 2.45 µM; in assay [6], 1.84 µM. Besides, the GI50 in [7] was 2.46 µM; in [8] it was 0.402 µM; in [9] it was 1.65 µM. Further, the TGI in assay [2] was found to be 5.2 µM; in [3] it was 2.35 µM; in [10], 4.33 µM; in assay [4], 4.03 µM; in assay [5] it was 12.7 µM; in [6], 4 µM. In addition, the TGI in [7] came out at 8.92 µM; in assay [8] it was 1.36 µM; in assay [9], 3.2 µM.

In the case of `CC[CH2][Pb]([CH2]CC)([CH2]CC)[NH]S(=O)(=O)c1ccc(C)cc1`, the GI50 in assay [2] is 0.089 µM; in [3], 0.025 µM; in assay [10], 0.0421 µM; in [4], 0.0371 µM; in assay [5] it was 0.0349 µM; in [6], 0.0176 µM. The GI50 in [7] is 0.0667 µM; in assay [8], 0.0643 µM; in [9], 0.0431 µM. For the same molecule, the TGI in assay [2] is 0.292 µM; in assay [3], 0.0655 µM; in [10] it was 0.132 µM; in assay [4], 0.23 µM; in assay [5], 0.143 µM; in assay [6], 0.0436 µM. Also, the figures for the TGI in [7], in assay [8] and in assay [9] were 0.242 µM, 0.272 µM and 0.174 µM, respectively.

As to `FC(F)(F)C12C34C=CC5(CCC6(C=CC1(CC3)O6)C52C(F)(F)F)O4` (centres undefined), the TGI in [1], in assay [2], in assay [3], in assay [4], in assay [5] and in [6] was above 100 µM throughout. Besides, the TGI in assay [7], in [8] and in assay [9] was above 100 µM each time.

For `Cc1cn2c(/C=N/N/C(N)=N\N)c(-c3ccc(Cl)c([N+](=O)[O-])c3)nc2s1`, the GI50 in assay [1] was 8.49 µM; in [2], 0.914 µM; in [5], 2.05 µM; in [6], 7.63 µM; in assay [7] it was 1.03 µM; in assay [8] it was 25.2 µM. Further, the TGI in assay [1] is 17.6 µM; in [2], 1.63 µM; in [5], 18.6 µM; in [6], 23.4 µM; in assay [7], 2.1 µM; in assay [8], above 50 µM.

Regarding `C/C=C(/CCCCNCCCC)[Si](C)(C)C`, the TGI was determined as 26.3 µM in assay [2]; 28.3 µM in [3]; 27 µM in assay [10]; 73.4 µM in assay [4]; 31.8 µM in [5]; 33.1 µM in assay [6]. The results for the TGI in [7] and in assay [9] were 27.6 µM and 33.2 µM, respectively.

For `O=C(Nc1cc(Cl)c(Cl)cc1Cl)C(=O)C(C(=O)c1ccc(Cl)c(Cl)c1)C1OC(=O)c2ccccc21` (centres undefined), the TGI was found to be 46.3 µM in assay [1]; 30.9 µM in [2]; 35 µM in [3]; 49.5 µM in [4]; 49.8 µM in [5]; 28.6 µM in assay [6]. Also, the TGI came to 23.6 µM in assay [7] and 52 µM in assay [8].

As to `CC(C)=CC(=O)CC(=O)C(=O)Nc1ccc(Cl)c(Cl)c1`, the TGI in [2], in assay [10], in [4], in [5], in assay [6] and in assay [7] was above 100 µM each time. Besides, the TGI in assay [8] and in [9] was above 100 µM in each case.

As to `CC1CC2(CC[C@@H]1O)OCCO2` (some centres undefined), the TGI in [1], in [2], in assay [3], in assay [4], in [5] and in assay [6] was above 100 µM throughout. In addition, the TGI in assay [8] and in assay [9] was above 100 µM throughout.

As for `CC(=O)C1=C([O-])C(C)OC1=O.CC(=O)C1=C([O-])C(C)OC1=O.[NH-]C1CCCC[C@H]1[NH-].[Pt+4]` (centres undefined), the GI50 in [1] was 35.9 µM; in assay [2] it was above 100 µM; in assay [3], 96.6 µM; in assay [5], above 100 µM; in assay [6], above 100 µM; in [8], 16.1 µM. For the same molecule, in assay [9], the GI50 was 48 µM. Further, the TGI in assay [1], in assay [2], in [3], in assay [5], in assay [6] and in assay [8] was above 100 µM throughout. The TGI in assay [9] is above 100 µM.

Consider `FC(F)(F)c1ccc2nc(Nc3ccc(Cl)c(Cl)c3)c(-c3ccccc3)nc2c1`, for which the TGI in assay [2], in assay [3], in [4], in [5], in assay [6] and in assay [7] was above 100 µM in each case. The TGI in assay [8] and in assay [9] was above 100 µM each time.

Regarding `CC(C)[C@@H](COC(C)(C)C)N=CN1CCc2c([nH]c3ccccc23)C1`, the TGI in [2], in assay [3], in [10], in assay [4], in assay [5] and in [6] was above 100 µM in each case. In addition, the TGI in [7] and in assay [8] was above 100 µM throughout.

Take `COc1ccc2cc3n(c2c1)CCc1cc(OC)c(OC)cc1-3`: the TGI in assay [1], in assay [2], in [3], in assay [4], in [5] and in assay [6] was above 100 µM in each case. Moreover, the TGI in [8] was above 100 µM.

As for `CCCCCCCCCCCCC(=O)[O-].CCCCCCCCCCCCC(=O)[O-].CCCCCCCCCCCCC(=O)[O-].CCCCCCCCCCCCC(=O)[O-].[Mo+2].[Mo+2]`, the GI50 in assay [2] is 10.7 µM; in assay [3], 12.1 µM; in assay [4] it was 2.29 µM; in assay [5] it was 26.5 µM; in assay [6], 12.2 µM; in [7], 23.6 µM. Moreover, the figures for the GI50 in assay [8] and in [9] were 2.82 µM and 11.4 µM, respectively. The TGI in assay [2] was 22.6 µM; in [3], 25.2 µM; in assay [4], 10 µM; in assay [5], above 100 µM; in [6] it was 28 µM; in [7], 67 µM. Moreover, the TGI is 7.8 µM in assay [8] and 28 µM in assay [9].

Consider `CS(=O)(=O)Nc1cc(-c2ccc3ncnc(Nc4ccc5c(cnn5Cc5ccc(F)cc5)c4)c3c2)cnc1Cl`, for which the GI50 in assay [2] is 1.41 µM; in assay [3], 1.18 µM; in [10], 0.211 µM; in [4], 0.822 µM; in assay [5], 1.81 µM; in assay [6], 1.09 µM. Besides, the GI50 was 1.53 µM in assay [7], 0.435 µM in assay [8] and 0.441 µM in assay [9]. Further, the TGI in [2] was 11.1 µM; in assay [3] it was 3.27 µM; in assay [10], 2.97 µM; in assay [4] it was above 100 µM; in assay [5], 12.2 µM; in [6], 3.28 µM. Further, the TGI turned out to be 8.84 µM in assay [7], 2.75 µM in assay [8] and 2.92 µM in assay [9].

Regarding `COc1ccc2c(C(=O)O)cc3cc(OC)c(OC)cc3c2c1`, the TGI in assay [2], in assay [3], in [10], in assay [4], in [5] and in assay [6] was above 100 µM in each case. For the same molecule, the TGI in assay [7], in [8] and in assay [9] was above 100 µM each time.

`CC1=CC(=O)C(C(C)=Nc2ccccc2Cl)C(=O)O1` (centres undefined): the GI50 in assay [1], in [2], in assay [3], in assay [4], in assay [5] and in assay [7] was above 100 µM each time. Also, the GI50 in assay [8] and in assay [9] was above 100 µM throughout. For the same molecule, the TGI in [1], in assay [2], in assay [3], in assay [4], in [5] and in assay [7] was above 100 µM in each case. For the same molecule, the TGI in assay [8] and in assay [9] was above 100 µM in each case.
